What was measured:
[1] = system: T1, rKpACE (KpACE, Klebsiella pneumoniae Acetylated CPS Esterase); test: acetylesterase assay, Michaelis-Menten fit; assay type: biochemical; conditions: pH 7.4
T1 construct: signal peptide (1-21) removed; N-terminal 6xHis tag; pET-28a, E. coli BL21(DE3)

[2] = target: recombinant KpACE (Klebsiella pneumoniae Acetylated CPS Esterase) (Klebsiella pneumoniae ATCC43816); test: SEC; Superdex 200; rKpACE peak at 14.38 mL (75.6 kDa); predicted monomer 43.1 kDa

Molecule | Km [1] [µM] | stoichiometry N [2]
CC(=O)Oc1ccc2c(C)cc(=O)oc2c1 [4-MU-Ac, 4-methylumbelliferyl acetate] | 160 ± 30 | –
recombinant KpACE (Klebsiella pneumoniae Acetylated CPS Esterase) (enzyme) | – | 2

— paper PMC11556721, “A novel esterase regulates Klebsiella pneumoniae hypermucoviscosity and virulence” (PLOS Pathogens, 2024)
